In patent EP4810038A1, “METHOD FOR TREATING ALK-POSITIVE OR ROS1-POSITIVE NON-SMALL CELL LUNG CANCER” (Shenzhen TargetRx Co., Ltd., priority 2023, dated 2025):
Where “and” joins values, the source holds several entries; their conditions need not be identical. Equal values may be shown once. Entries after “also recorded” stand apart in the source; their conditions may differ.

Key:
[1] = Phase II single-arm trial: safety analysis; format: in vivo; conditions: 60 mg QD
From the text: Once a subject met the criteria for the discontinuation of the treatment/withdrawal from the treatment and discontinued the medication, the subject entered a 4-week safety follow-up period. If other anti-tumor therapies were used during the safety follow-up period, a safety follow-up visit and inspection must be completed before starting the other anti-tumor therapies. For the unresolved adverse event or abnormal laboratory test, the follow-up continued until the event was resolved, the subject returned to the baseline status, the condition stabilized, a reasonable explanation was obtained, or the subject was lost to follow-up or died.

[2] = system: ROS1-positive advanced NSCLC; test: Phase I clinical trial, indication expansion phase: efficacy in group B (ROS1-positive, prior crizotinib); format: in vivo, human
Description: The anti-tumor efficacy is evaluated according to RECIST version 1.1. For patients initially evaluated as having a complete response (CR) or partial response (PR), efficacy should be confirmed at least 4 weeks later. In the patients with asymptomatic central nervous system (CNS) metastases, in addition to evaluating 5 extracranial target lesions, up to 5 intracranial target lesions will also be evaluated. The specific indicators are as follows:
"ORR" includes CR and PR, and is defined as the proportion of patients who achieve complete response or partial response.
"IC-ORR" includes CR or PR for confirmed intracranial lesions, and is defined as the proportion of the patients with complete response or partial response of intracranial lesions among the patients with intracranial lesions.
"DCR" is defined as the proportion of the patients who achieve response (PR+CR) and stable disease (SD) after a treatment.
"IC-DCR" is defined as the proportion of the patients who achieve intracranial response (PR+CR), intracranial stable disease (SD), and […] after a treatment among the patients with intracranial lesions.
"DOR" is defined as the time from the first assessment of CR or PR to progressive disease or death, and is only applicable to the patients who achieve response.
"IC-DOR" is defined as the time from the first assessment of intracranial CR or intracranial PR to progressive disease or death, and is only applicable to the patients whose intracranial lesions achieve response.
"TTR" is defined as the time from patient enrollment (first dose of investigational drug) to tumor response (CR/PR), based on the patients with objective response.
"IC-TTR" is defined as the time from patient enrollment (first dose of investigational drug) to intracranial tumor response (IC-CR/PR), based on the patients with intracranial objective response.
"PFS" is defined as the time from the first administration of the investigational drug to progressive disease (PD) or death from any cause, whichever comes first.
In the indication expansion phase, an appropriate administration regimen was determined based on the safety, tolerability, PK and efficacy data from the dose escalation phase and dose expansion phase, and the expansion was performed within the target population.
The result of a pregnancy test conducted ≤7 days prior to the first administration of the investigational drug must be negative for the women of childbearing age.

[3] = system: ALK-positive advanced NSCLC who had failed a second-generation ALK inhibitor; test: Phase II single-arm trial, 60 mg QD: whole-body tumor efficacy (IRC assessment); format: in vivo, human
From the text: Variable of the research: whether the subjects achieved objective response (CR/PR) during the treatment, as assessed by the independent review committee (IRC).

[4] = intracranial measurable lesions, Group B (n=6)
[5] = 158 subjects, cutoff May 20, 2024
[6] = whole-body, full analysis set (N=158)

[2H]C([2H])([2H])n1nc2c(c1C#N)-c1cnc(N)c(c1)O[C@H](C)c1cc(F)ccc1C(=O)N(C)C2 [compound A, (10R)-7-amino-12-fluoro-2-(methyl-d3)-10,16-dimethyl-15-oxo-10,15,16,17-tetrahydro-2H-8,4-(metheno)pyrazolo[4,3-h][2,5,11]benzoxadiazacyclotetradecine-3-carbonitrile]
common TRAEs [1]: hypercholesterolemia, hypertriglyceridemia, weight gain, anemia, and peripheral edema | incidence of TRAEs leading to dose reduction, temporary or permanent discontinuation of medication [1]: low | ORR ([2]; 24 ROS1-positive NSCLC patients previously treated with crizotinib): 29.2% | intracranial ORR ([2]; ROS1-positive, six patients with measurable CNS lesions at baseline): 50.0% | median PFS ([2]; group B, FAS, as of April 17, 2024): 8.36 months | BOR CR [2, 4]: 0 n (%) | BOR NE [2, 4]: 0 n (%) | BOR PD [2, 4]: 1 (16.7) n (%) | BOR PR [2, 4]: 3 n (%) and 3 (50.0) n (%) | BOR SD [2, 4]: 2 (33.3) n (%) | Confirmed ORR (95% CI) [2, 4]: 3 (50.0) (11.8, 88.2) n (%) | DCR (95% CI) [2, 4]: 5 (83.3) (35.9, 99.6) n (%) | Median DOR (95% CI) [2, 4]: not reached | Median TTR (range) [2, 4]: 1.41 months and 1.41 (1.35, 1.41) months | BOR CR ([2]; systemic, Group B (n=24)): 0 n (%) | BOR NE ([2]; systemic, Group B (n=24)): 0 n (%) | BOR PD ([2]; systemic, Group B (n=24)): 7 (29.2) n (%) | BOR PR ([2]; systemic, Group B (n=24)): 7 (29.2) n (%) | BOR SD ([2]; systemic, Group B (n=24)): 10 (41.7) n (%) | Confirmed ORR (95% CI) ([2]; systemic, Group B (n=24)): 7 (29.2) (12.6,51.1) n (%) | DCR (95% CI) ([2]; systemic, Group B (n=24)): 17 (70.8) (48.9, 87.4) n (%) | Median DOR (95% CI) ([2]; systemic, Group B (n=24)): not reached; also recorded: NR (4.370, -) | Median TTR (range) ([2]; systemic, Group B (n=24)): 1.41 months and 1.41 (1.31, 7.03) months | median DOR [3, 5]: not yet reached | median PFS [3, 5]: 11.14 months | median TTR [3, 5]: 1.38 months | ORR ([3]; subgroup ECOG PS score of 0 at baseline, FAS): 50.0% | ORR ([3]; subgroup ECOG PS score of 1 to 2 at baseline, FAS): 40.8% | ORR ([3]; subgroup age < 65 years old, FAS): 43.0% | ORR ([3]; subgroup age ≥ 65 years old, FAS): 40.0% | ORR ([3]; subgroup female, FAS): 42.9% | ORR ([3]; subgroup male, FAS): 41.9% | ORR ([3]; subgroup never received chemotherapy, FAS): 45.4% | ORR ([3]; subgroup previously received chemotherapy, FAS): 37.7% | ORR ([3]; subgroup with a smoking history, FAS): 38.6% | ORR ([3]; subgroup with brain metastases at baseline, FAS): 45.3% | ORR ([3]; subgroup without a smoking history, FAS): 39.4% | ORR ([3]; subgroup without brain metastases at baseline, FAS): 38.9% | BOR CR [3, 6]: 0 n (%) | BOR NE [3, 6]: 2 (1.3) n (%) | BOR PD [3, 6]: 25 (15.8) n (%) | BOR PR [3, 6]: 67 n (%) and 67 (42.4) n (%) | BOR SD [3, 6]: 64 (40.5) n (%) | DCR [3, 6]: 131 (82.9) n (%) | ORR [3, 6]: 67 n (%) and 67 (42.4) n (%)
